In experiment [1] the test system is HT-29 cell (ATCC HTB-38). Kind of experiment: HT-29 cell anti-proliferation assay. The experiment is classed as cell-based. Particulars: HT-29 cells, 2×10^3 cells/well. The method, then: (§1) Compounds of the invention were tested for anti-proliferation activity against colon tumors (Colo205, HT-29, C26 and SW660 cell lines) by procedures described in Example 40 above. 2×10^3 cells/well used.

Experiment [2] has as its system Breast cancer MCF-7 cells. Kind of experiment: MCF-7 tumor cell proliferation assay. It counts as cell-based. Particulars: MCF-7, ATP lite cell proliferation kit.
Experiment [3] has as its system Colon Adeno Carcinoma (DLD-1 cell line; ATCC CCL-221). How it is done:
(§2) Breast cancer MCF-7 cells or ovarian cancer OVCAR-3 cells were plated in 96 well Packard white plates at 4×10^3 cells/well and cultured overnight at 37° C. in 5% CO2. The below specified test compounds were serially diluted in 100% DMSO and subsequently added to cells to reach a final concentration of 0.5% DMSO. MCF-7 and OVCAR-3 (ATCC HTB-161) plates were incubated for an additional 4 to 5 days respectively at 37° C. and 5% CO2 and cell proliferation was quantitated using the ATP lite cell proliferation kit (Packard).
(§3) (R) 4-iodo-benzoic acid 1-imidazol-1-yl methyl-2-phenoxy-ethyl ester (Example No. 1) was tested for anti-proliferation activity against additional tumor cell types as specified below by procedures described in Example 39 above. American Type Culture Collection (ATCC) deposit numbers are indicated below for many of the tested cell types. Results express, as follows, the concentration of compound of the invention (μM) required to inhibit the proliferation of the tumor cells by 50 percent relative untreated controls (i.e. IC50 (μM)).

The subject of experiment [4] is Kidney Adeno Carcinoma (ACHN cell line; ATCC CRL-1611). The method, then:
as §2, §3

Experiment [5] deals with Pancreatic Epithelioid Carcinoma (PANC-1 cell line; ATCC CRL-1469). How it is done:
as §2, §3

For experiment [6], the system named is Prostate Adenocarcinoma (PC-3 cell line; ATCC CRL-1435). The method, then: as §2, §3
Experiment [7] deals with Breast Adeno Carcinoma (MCF-7 cell line). Particulars: MCF-7 cell line (Example 42). How it is done:
as §2, §3

The test system of experiment [8] is Lung Carcinoma (A549 cell line; ATCC CCL-185). How it is done:
as §2, §3

Experiment [9] concerns Promyelocytic Leukemia (HL-60 cell line; ATCC CRL-240). How it is done:
as §2, §3

In experiment [10] the test system is Pancreatic Carcinoma (MIA PaCa-2 cell line; ATCC CRL-1420). The method, then:
as §2, §3

Experiment [11] relates to Kidney Carcinoma (A498 cell line; ATCC HTB-44). How it is done:
as §2, §3

Experiment [12] deals with Colon Adeno Carcinoma (Grade II) (HT-29 cell line; ATCC HTB-38). To be noted: HT-29 cell line (Example 42). The method, then:
as §2, §3

Experiment [13] concerns Malignant Melanoma (SK-MEL-5 cell line; ATCC HTB-70). How it is done: as §2, §3
For experiment [14], the system named is Breast Ductal Carcinoma (T47D cell line; ATCC HTB-133). How it is done:
as §2, §3

Experiment [15] deals with Neuroepithelioma (SK-N-MC cell line; ATCC HTB-10). How it is done: as §2, §3
Experiment [16] deals with Chronic Myelogenous Leukemia (K562 cell line; ATCC CCL-243). How it is done: as §2, §3
The test system of experiment [17] is Lung Carcinoma (PC-6 cell line). How it is done:
as §2, §3

Experiment [18] deals with primary rat granulosa cell. To be noted: compound at 10 nM to 100 nM in the presence of picomolar FSH (2 to 5 picomolar).
Protocol: Cells were plated at 5000, 8,000 and 20,000 cells/well/200 μl of GAB medium on poly-D-lysine coated 96-well tissue culture plates. Plates were incubated at 37° C. in a 5% CO/95% air incubator for 3 days. […] The compound of the invention and picomolar FSH were then added to the cultures. Cells were incubated @ 37° C. in 5% CO2. Three days later, cell supernatants were collected and diluted 1:100 in GAB medium for measurement of estradiol by RIA. The RIA was performed according to manufacturer directions except that an estradiol standard was prepared in absolute ethanol at 100 ng/ml and then further diluted in GAB medium, instead of kit buffer.
Experiment [19] relates to Colon 205 cell (ATCC CCL-222). Description: Colon 205 cell anti-proliferation assay. The experiment is classed as cell-based. Particulars: Colon 205 cells, 2×10^3 cells/well. How it is done:
as §1

Experiment [20] deals with MEK-1 (constitutively active MEK1EE) (Homo sapiens, UniProt Q02750, S218E/S222E). Kind of experiment: MEK-1 enzyme assay (HTRF, phosphorylation of ERK2K52A). It counts as biochemical. Particulars: 3 μM ATP, 2 hours room temperature. The method, then:
A 50 μl mixture containing 15 nM constitutively active MEK1EE and 300 nM of ERK2K52A were incubated either in the presence or absence of the compounds of the invention in 1% DMSO and 1× kinase buffer containing 3 μM ATP, […], […], 1 mM DTT and 100 μM Na3VO4 in Wallac 96 well black plates for 2 hours at room temperature. At the end of the incubation the enzyme reaction was quenched by adding 50 μl of assay buffer containing […] Tris-HCl, 50 mM EDTA, 0.1% BSA and a mixture of 1.25 μg/ml europium labeled anti-phosphotyrosine mAb and 5 μg/ml allophycocyanin labeled (APC) anti-GST antibody. Plates were agitated on a plate shaker for 30 minutes and phosphorylation of the ERK2K52A substrate was measured by homogenous time resolved fluorescence (HTRF) at 340 nm excitation and […] emission filters on the VICTOR V fluorescence plate reader. The results are of phosphorylation of ERK-2, with inhibition occurring at the MEK-1 level. Results were as follows for the specified compounds: […]
Background: In TR-FRET formats the signal depends on donor and acceptor labels being close together.

In experiment [21] the test system is ovarian cancer OVCAR-3 cells. Description: OVCAR-3 tumor cell proliferation assay. Particulars: OVCAR-3, ATP lite cell proliferation kit. The experiment is classed as cell-based.
Experiment [22] relates to SW 660 cell (ATCC CCL-227). Kind of experiment: SW 660 cell anti-proliferation assay. The experiment is classed as cell-based. Particulars: SW 660 cells, 2×10^3 cells/well. The method, then: as §1
The test system of experiment [23] is Colon C26 cell. Description: Colon C26 cell anti-proliferation assay. The experiment is classed as cell-based, murine. Particulars: Colon C26 cells, 2×10^3 cells/well. The method, then: as §1
The target of experiment [24] is MEK-1/ERK-2 (Homo sapiens, UniProt Q02750, S218E/S222E). Kind of experiment: MEK-1/ERK-2 enzyme cascade assay (33P incorporation into MBP biotin). The experiment is classed as biochemical. To be noted: 3 μM ATP, phosphorylation of myelin basic protein. The method, then:
MEK-1/ERK-2 Enzyme Cascade Assay
A 50 μl mixture containing 40 nM of constitutively active MEK1EE, 160 nM of ERK2 and 10 μM MBP biotin were incubated in the presence or absence of the below compound of the invention in 1% DMSO and 1× kinase buffer containing 3 μM ATP, 50 mM Tris-HCl pH 8.0, 10 mM MgCl2, 1 mM DTT, 100 μM Na3VO4 and […] ^33P-γATP in Wallac 96 well white plates for 2 hours at room temperature. At the end of the incubation the enzyme reaction was quenched by adding 200 μl Phosphate buffered saline (PBS) solution containing 1.25 mg/ml Streptavidin SPA beads, 50 mM EDTA and 0.1% Triton 100 and incubated further for 12-14 hours at room temperature. ^33P-γATP incorporation into MBP biotin was measured using the top counts. The assay read-out is phosphorylation of myelin basic protein, which is a representative substrate of ERK-2-phos. This assay is a further confirmatory screen of the assay of Example 38 above.

The structures appear in SMILES notation.

Sequence of MEK-1 (constitutively active MEK1EE) (Q02750 whole entry S218E/S222E, species assumed): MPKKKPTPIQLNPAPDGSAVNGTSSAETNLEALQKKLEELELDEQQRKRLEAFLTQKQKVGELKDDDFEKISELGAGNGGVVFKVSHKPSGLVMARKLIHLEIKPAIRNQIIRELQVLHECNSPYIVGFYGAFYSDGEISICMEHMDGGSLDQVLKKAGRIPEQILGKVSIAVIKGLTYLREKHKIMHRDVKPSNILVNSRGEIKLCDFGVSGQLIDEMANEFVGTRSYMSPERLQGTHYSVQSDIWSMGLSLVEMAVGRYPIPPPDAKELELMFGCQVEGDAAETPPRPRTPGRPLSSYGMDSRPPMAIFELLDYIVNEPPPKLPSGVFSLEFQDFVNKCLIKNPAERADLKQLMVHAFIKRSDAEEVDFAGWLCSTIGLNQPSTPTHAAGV
Sequence of MEK-1/ERK-2 (Q02750 whole entry S218E/S222E): as the sequence (Q02750 whole entry S218E/S222E, species assumed) above

As to `O=C(OC(COc1ccccc1)Cn1ccnc1)c1ccc(I)cc1` (stereo not drawn) [Example 1, 4-Iodo-benzoic acid 1-imidazol-1-yl methyl-2-phenoxy-ethyl ester], the IC50 (usually the concentration at which inhibition is half-maximal) in [1] is 3.5 µM; in [2], 15 ± 7.1 µM; in experiment [3], 36 µM; in experiment [4] it was > 100 µM; in experiment [5], > 100 µM; in [6], 24 µM. Also, the IC50 in [7] was determined as 33 µM; in [8], 25 µM; in [9], 3.6 µM; in [10], 3.1 µM; in experiment [11], 54 µM; in [12] it was 4 µM. Besides, the IC50 came to 11 µM in experiment [13]; 11 µM in [14]; 6.7 µM in [15]; 33 µM in [16]; 43 µM in [17]; 1.4 µM in [19]. The IC50 in experiment [20] stood at 0.039 ± 0.012 µM; in [21], 25 µM; in experiment [22] it was 2.1 µM; in experiment [23], 2.33 µM; in experiment [24], 0.036 ± 0.008 µM. For the same compound, the estradiol production entry in experiment [18] is “induces estradiol production”.

These data come from patent US7541375B2, “Azole derivatives and pharmaceutical compositions containing them” (Laboratoires Serono SA, priority 2001, dated 2009).
